Laboratory results published in ChEMBL document CHEMBL1153705, “Evaluation and optimization of antifibrotic activity of cinnamoyl anthranilates” (Bioorg Med Chem Lett, 2009).
The source made the active and inactive calls. No cut-off for these calls is given here.

How the values were obtained:
[1] = (§1) Antifibrotic activity in rat 1097 cells assessed as inhibition of TGF-beta-stimulated [3H]proline incorporation in to collagen at 100 uM; assay type: functional
[2] = Antifibrotic activity in rat 1097 cells assessed as inhibition of TGF-beta-stimulated [3H]proline incorporation in to collagen at 30 uM; assay type: functional
1097 [3] = assay: Antifibrotic activity in rat 1097 cells assessed as necrotic cells at 30 uM; assay type: functional, cell-based
1097 [4] = assay: Antifibrotic activity in rat 1097 cells assessed as necrotic cells at 100 uM; assay type: functional, cell-based
Rattus norvegicus [5] = organism: Rattus norvegicus; assay: as §1; assay type: functional
Rattus norvegicus [6] = organism: Rattus norvegicus; assay: Antifibrotic activity in rat 1097 cells assessed as damaged cells at 100 uM; assay type: functional, cell-based
Rattus norvegicus [7] = assay: Reduction in albuminuria in STZ-induced Ren2 rat at 200 mg/kg/day after 24 hrs by radioimmunoassay; assay type: functional, organism-based
Rattus norvegicus [8] = assay: Reduction in albuminuria in STZ-induced Ren2 rat at 400 mg/kg/day after 24 hrs by radioimmunoassay; assay type: functional, organism-based
[9] = Toxicity against rat 1097 cells at 100 uM; assay type: cell-based
[10] = Toxicity against rat 1097 cells at 30 uM; assay type: cell-based
[11] = Antifibrotic activity in rat 1097 cells assessed as inhibition of TGF-beta-stimulated [3H]proline incorporation in to collagen at 10 uM; assay type: functional

COc1cccc(/C=C/C(=O)Nc2ccccc2C(=O)O)c1
inhibition at 100 µM [1]: 40%

CCC#CCCOc1cc(/C=C/C(=O)Nc2ccccc2C(=O)O)ccc1OC
inhibition at 30 µM [2]: 100% | inhibition at 100 µM [1]: 100%

COc1ccc(/C=C/C(=O)Nc2ccccc2)cc1OC
inhibition at 100 µM [1]: 50%

COc1ccc(/C=C/C(=O)Nc2ccccc2C(=O)O)cc1OC [TRANILAST]
inhibition at 30 µM [2]: 40% | inhibition at 100 µM [1]: 70%

COc1cc(/C=C/C(=O)Nc2ccccc2C(=O)O)ccc1OC1CCCCCCC1
Activity 1097 [3]: Active | Activity 1097 [4]: Active

C#CCCCCOc1cc(/C=C/C(=O)Nc2ccccc2C(=O)O)ccc1OC
inhibition at 30 µM [2]: 95% | inhibition at 100 µM [1]: 100%

COc1ccc(/C=C/C(=O)Nc2ccccc2C(N)=O)cc1OC
inhibition at 100 µM [1]: 35%

COc1ccc(CCC(=O)Nc2ccccc2C(=O)O)cc1OC
inhibition (Rattus norvegicus [5]): inactive

C#CCCOc1cc(/C=C/C(=O)Nc2ccccc2C(=O)O)ccc1OC
Activity (Rattus norvegicus [6]): Active | inhibition at 30 µM [2]: 65%

C#CCOc1ccc(/C=C/C(=O)Nc2ccccc2C(=O)O)cc1OC [ASENGEPRAST]
inhibition at 30 µM [2]: 55% | inhibition at 100 µM [1]: 80% | Activity (Rattus norvegicus [7]): Active | Activity (Rattus norvegicus [8]): Active

C#CCCCOc1cc(/C=C/C(=O)Nc2ccccc2C(=O)O)ccc1OC
Activity (Rattus norvegicus [6]): Active | inhibition at 30 µM [2]: 80%

C#CCCCOc1ccc(/C=C/C(=O)Nc2ccccc2C(=O)O)cc1OC
inhibition at 30 µM [2]: 75% | inhibition at 100 µM [1]: 100%

COc1cc(/C=C/C(=O)Nc2ccccc2C(=O)O)ccc1OC1CCCC1
Activity [9]: Toxic | Activity (Rattus norvegicus [6]): Active | inhibition at 30 µM [2]: 100% | Activity [10]: Non-toxic

COc1ccc(/C=C/C(=O)Nc2ccccc2C(=O)O)cc1
inhibition (Rattus norvegicus [5]): inactive

C#CCOc1cc(/C=C/C(=O)Nc2ccccc2C(=O)O)ccc1OC
inhibition at 30 µM [2]: 60% | inhibition at 100 µM [1]: 90%

CC#CCOc1ccc(/C=C/C(=O)Nc2ccccc2C(=O)O)cc1OC
inhibition at 30 µM [2]: 65% | inhibition at 100 µM [1]: 90%

O=C(/C=C/c1ccc(O)c(O)c1)Nc1ccccc1C(=O)O
inhibition at 100 µM [1]: 90%

CCCCC#CCCOc1ccc(/C=C/C(=O)Nc2ccccc2C(=O)O)cc1OC
Activity 1097 [3]: Active

C#CCCOc1ccc(/C=C/C(=O)Nc2ccccc2C(=O)O)cc1OC
inhibition at 30 µM [2]: 70% | inhibition at 100 µM [1]: 100%

COc1ccc(/C=C/C(=O)Nc2ccccc2C(=O)O)cc1O
inhibition at 100 µM [1]: 50%

COc1cc(/C=C/C(=O)Nc2ccccc2C(=O)O)ccc1O
inhibition at 100 µM [1]: 50%

C#CCCCCOc1ccc(/C=C/C(=O)Nc2ccccc2C(=O)O)cc1OC
Activity (Rattus norvegicus [6]): Active | inhibition at 30 µM [2]: 80%

CCC#CCOc1cc(/C=C/C(=O)Nc2ccccc2C(=O)O)ccc1OC
Activity [9]: Toxic | inhibition at 30 µM [2]: 90% | inhibition at 100 µM [1]: 100% | Activity [10]: Non-toxic

COc1cc(/C=C/C(=O)Nc2ccccc2C(=O)O)ccc1OC1CCCCC1
Activity 1097 [3]: Active | Activity 1097 [4]: Active

O=C(/C=C/c1ccccc1)Nc1ccccc1C(=O)O
inhibition (Rattus norvegicus [5]): inactive

CC#CCOc1cc(/C=C/C(=O)Nc2ccccc2C(=O)O)ccc1OC
inhibition at 30 µM [2]: 75% | inhibition at 100 µM [1]: 80%

CCC#CCOc1ccc(/C=C/C(=O)Nc2ccccc2C(=O)O)cc1OC
Activity [9]: Toxic | inhibition at 30 µM [2]: 100% | inhibition at 100 µM [1]: 100% | Activity [10]: Non-toxic

CCC#CCCOc1ccc(/C=C/C(=O)Nc2ccccc2C(=O)O)cc1OC
Activity (Rattus norvegicus [6]): Active | inhibition at 30 µM [2]: 100%

CCCCC#CCCOc1cc(/C=C/C(=O)Nc2ccccc2C(=O)O)ccc1OC
Activity 1097 [3]: Active | Activity 1097 [4]: Active

COc1cc(/C=C/C(=O)Nc2ccccc2C(=O)O)ccc1OC1CCC1
Activity (Rattus norvegicus [6]): Active | inhibition at 10 µM [11]: 60%

COc1cc(/C=C/C(=O)Nc2ccccc2C(=O)O)ccc1OC1CCCCCC1
Activity 1097 [3]: Active | Activity 1097 [4]: Active
